This note sets out measurements from patent US20230061608A1, “SUBSTITUTED QUINOLINONYL PIPERAZINE COMPOUNDS USEFUL AS T CELL ACTIVATORS” (BRISTOL-MYERS SQUIBB COMPANY, priority 2019, published 2023).

In one assay the target is T1, DGKα (Homo sapiens, UniProt P23743).
T1 construct: made in house; host or cells: Sf9 insect cells, baculovirus (Bac-to-Bac)
Kind of assay: In vitro DGK inhibition assay, DGKα LIPGLO (extruded liposomes). The class given is biochemical. As to conditions: liposome (LIPGLO) assay, 150 μM ATP, 5 nM enzyme. Here is the method:
(§1) Assay 1: In vitro DGK Inhibition Assays—Method A
(§2) The DGKα and DGKζ reactions were performed using extruded liposomes (DGKα and DGKζ LIPGLO assays). The reactions were carried out in 50 mM MOPS pH 7.5, 100 mM NaCl, 10 mM MgCl2, 1 μM CaCl2), and 1 mM DTT (assay buffer). The lipid substrate concentrations were 2 mM PS, 0.25 mM DAG, and 2.75 mM PC for the extruded liposome reactions. The reactions were carried out in 150 μM ATP. The enzyme concentrations for the DGKα and DGKζ were 5 nM.
(§3) The compound inhibition studies were carried out as follows: 50 nL droplets of each test compound (top concentration 10 mM with 11 point, 3-fold dilution series for each compound) solubilized in DMSO were transferred to wells of a white 1536 well plate (Corning 3725). A 5 mL enzyme/substrate solution at 2× final reaction concentration was prepared by combining 2.5 mL 4× enzyme solution (20 nM DGKα or DGKζ (prepared as described below) in assay buffer) and 2.5 mL of 4× liposome solution (compositions described below) and incubated at room temperature for 10 minutes. Next, 1 μL 2× enzyme/substrate solution was added to wells containing the test compound and reactions were initiated with the addition of 1 μL 300 uM ATP. The reactions were allowed to proceed for 1 hr, after which 2 μL Glo Reagent (Promega V9101) was added and incubated for 40 minutes. Next, 4 μL Kinase Detection Reagent was added and incubated for 30 minutes. Luminescence was recorded using an EnVision microplate reader. The percent inhibition was calculated from the ATP conversion generated by no enzyme control reactions for 100% inhibition and vehicle-only reactions for 0% inhibition. The compounds were evaluated at 11 concentrations to determine IC50.
(§4) The lipid composition was 5 mol % DAG (Avanti 8008110), 40 mol % PS (Avanti 840035P), and 55 mol % PC (Avanti 850457) at a total lipid concentration of 15.2 mg/mL for the 4× liposome solution. The PC, DAG, and PS were dissolved in chloroform, combined, and dried in vacuo to a thin film. The lipids were hydrated to 20 mM in 50 mM MOPS pH 7.5, 100 mM NaCl, 5 mM MgCl2, and were freeze-thawed five times. The lipid suspension was extruded through a 100 nm polycarbonate filter eleven times. Dynamic light scattering was carried out to confirm liposome size (50-60 nm radius). The liposome preparation was stored at 4° C. for as long as four weeks.
(§5) Human DGK-alpha-TVMV-His-pFBgate and human DGK-zeta-transcript variant-2-TVMV-His-pFBgate baculovirus samples were generated using the Bac-to-Bac baculovirus expression system (Invitrogen) according to the manufacturer's protocol. The DNA used for expression of DGK-alpha and DGK-zeta have SEQ ID NOs: 1 and 3, respectively. Baculovirus amplification was achieved using infected Sf9 cells at 1:1500 virus/cell ratios, and grown for 65 hours at 27° C. post-transfection.
(§6) Full length human DGKα and DGKζ, each expressed containing a TVMV-cleavable C-terminal Hexa-His tag sequence (SEQ ID NOs: 2 and 4, respectively) and produced as described above, were purified from Sf9 baculovirus-infected insect cell paste. The cells were lysed using nitrogen cavitation method with a nitrogen bomb (Parr Instruments), and the lysates were clarified by centrifugation. The clarified lysates were purified to ˜90% homogeneity, using three successive column chromatography steps on an ÄKTA Purifier Plus system. The three steps column chromatography included nickel affinity resin capture (i.e. HisTrap FF crude, GE Healthcare), followed by size exclusion chromatography (i.e. HiLoad 26/600 Superdex 200 prep grade, GE Healthcare for DGK-alpha, and HiPrep 26/600 Sephacryl S 300_HR, GE Healthcare for DGK-zeta). The third step was ion exchange chromatography, and differed for the two isoforms. DGKα was polished using Q-Sepharose anion exchange chromatography (GE Healthcare). DGKζ was polished using SP Sepharose cation exchange chromatography (GE Healthcare). The proteins were delivered at concentrations of ≥2 mg/mL. […]

The next assay concerns the target T2, DGKζ (Homo sapiens, UniProt Q13574).
T2 construct: Full length human DGKα and DGKζ, each expressed containing a TVMV-cleavable C-terminal Hexa-His tag; made in house; host or cells: Sf9 insect cells, baculovirus (Bac-to-Bac)
Kind of assay: In vitro DGK inhibition assay, DGKζ LIPGLO (extruded liposomes). It is filed as biochemical. As to conditions: liposome (LIPGLO) assay, 150 μM ATP, 5 nM enzyme. How it is done: as §1, §2, §3, §4, §5, §6

Some results are limits rather than exact numbers.

As a reminder, the IC50 is the concentration that inhibits the measured activity by half.

T1 sequence (P23743 whole entry): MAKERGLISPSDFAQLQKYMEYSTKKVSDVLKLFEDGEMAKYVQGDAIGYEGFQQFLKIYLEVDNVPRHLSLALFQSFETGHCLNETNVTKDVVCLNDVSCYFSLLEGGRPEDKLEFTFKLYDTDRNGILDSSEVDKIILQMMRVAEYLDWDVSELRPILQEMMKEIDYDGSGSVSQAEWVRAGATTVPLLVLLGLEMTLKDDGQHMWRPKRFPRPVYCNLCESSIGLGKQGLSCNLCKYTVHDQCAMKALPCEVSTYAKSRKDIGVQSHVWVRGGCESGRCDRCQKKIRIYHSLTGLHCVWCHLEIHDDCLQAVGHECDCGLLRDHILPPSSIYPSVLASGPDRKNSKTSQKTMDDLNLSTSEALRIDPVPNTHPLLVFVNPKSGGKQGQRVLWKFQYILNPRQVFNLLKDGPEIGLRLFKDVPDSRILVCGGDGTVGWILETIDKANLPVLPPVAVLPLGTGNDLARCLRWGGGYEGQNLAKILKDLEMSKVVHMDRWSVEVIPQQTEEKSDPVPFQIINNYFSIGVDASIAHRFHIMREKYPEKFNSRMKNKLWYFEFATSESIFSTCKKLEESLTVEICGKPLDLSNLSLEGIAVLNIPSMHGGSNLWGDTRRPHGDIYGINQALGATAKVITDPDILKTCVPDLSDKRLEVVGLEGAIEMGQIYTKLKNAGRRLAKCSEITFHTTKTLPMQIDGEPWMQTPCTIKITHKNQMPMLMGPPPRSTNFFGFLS
T2 sequence (Q13574 1-929 isoform Q13574-4): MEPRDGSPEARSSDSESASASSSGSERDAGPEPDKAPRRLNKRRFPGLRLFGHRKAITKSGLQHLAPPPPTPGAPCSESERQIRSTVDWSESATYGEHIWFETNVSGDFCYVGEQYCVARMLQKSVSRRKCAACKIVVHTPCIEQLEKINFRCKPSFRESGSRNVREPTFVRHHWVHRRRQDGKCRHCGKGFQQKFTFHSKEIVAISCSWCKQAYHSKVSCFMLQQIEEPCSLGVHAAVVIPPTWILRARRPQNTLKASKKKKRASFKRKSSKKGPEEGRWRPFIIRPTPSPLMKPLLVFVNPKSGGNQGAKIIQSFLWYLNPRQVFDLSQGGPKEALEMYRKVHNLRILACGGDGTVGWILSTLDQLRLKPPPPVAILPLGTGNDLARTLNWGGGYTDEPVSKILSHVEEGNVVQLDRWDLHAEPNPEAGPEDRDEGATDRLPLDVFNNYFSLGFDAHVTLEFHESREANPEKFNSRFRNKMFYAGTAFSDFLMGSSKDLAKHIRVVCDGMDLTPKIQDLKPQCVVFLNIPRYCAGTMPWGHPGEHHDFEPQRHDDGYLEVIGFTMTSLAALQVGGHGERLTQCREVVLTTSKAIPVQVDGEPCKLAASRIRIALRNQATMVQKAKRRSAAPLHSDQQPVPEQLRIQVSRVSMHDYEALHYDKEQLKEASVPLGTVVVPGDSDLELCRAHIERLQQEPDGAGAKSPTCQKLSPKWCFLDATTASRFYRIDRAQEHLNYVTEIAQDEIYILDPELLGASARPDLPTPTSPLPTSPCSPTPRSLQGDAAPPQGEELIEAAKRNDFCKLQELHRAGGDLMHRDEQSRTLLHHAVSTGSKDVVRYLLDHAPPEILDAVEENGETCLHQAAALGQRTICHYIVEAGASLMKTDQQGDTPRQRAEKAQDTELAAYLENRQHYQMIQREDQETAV

Take `C[C@@H]1CN(c2c(C#N)c(=O)n(C)c3ccccc23)[C@@H](C)CN1C(c1ccc(F)cc1)c1ccc(F)cc1` (stereo in doubt) [Example 6, 4-[(2S,5R)-4-[bis(4-fluorophenyl)methyl]-2,5-dimethylpiperazin-1-yl]-1-methyl-2-oxo-1,2-dihydroquinoline-3-carbonitrile]: the IC50 against DGKα is 700 nM; against DGKζ, over 27 µM.

Take `C[C@@H]1CN(c2cc(=O)n(C)c3ccc(C#N)cc23)[C@@H](C)CN1C(c1ccc(F)cc1)c1ccc(F)cc1` (stereo in doubt) [Example 7, 4-[(2S,5R)-4-[bis(4-fluorophenyl)methyl]-2,5-dimethylpiperazin-1-yl]-1-methyl-2-oxo-1,2-dihydroquinoline-6-carbonitrile]: the IC50 on DGKα was 1300 nM; against DGKζ, over 250 µM.

Regarding `Cn1c(=O)c([N+](=O)[O-])c(N2CCN(Cc3cccc(F)c3)CC2)c2cc(F)ccc21` [Example 1, 6-fluoro-4-{4-[(3-fluorophenyl)methyl]piperazin-1-yl}-1-methyl-3-nitro-1,2-dihydroquinolin-2-one], the IC50 amounted to 7.3 nM against DGKα and 41 µM against DGKζ.

`Cc1cc(F)cc(CN2CCN(c3c(-c4ccncc4)c(=O)n(C)c4ccc(F)cc34)CC2)c1` [Example 2, 6-fluoro-4-{4-[(3-fluoro-5-methylphenyl)methyl]piperazin-1-yl}-1-methyl-3-(pyridin-4-yl)-1,2-dihydroquinolin-2-one]: the IC50 at DGKα is 51 nM; on DGKζ, 35 µM.

Consider `CCn1ccc2c(CN3CCN(c4c([N+](=O)[O-])c(=O)n(C)c5ccc(F)cc45)CC3)cccc21` [Example 4, 4-{4-[(1-ethyl-1H-indol-4-yl)methyl]piperazin-1-yl}-6-fluoro-1-methyl-3-nitro-1,2-dihydroquinolin-2-one], for which the half-maximal inhibitory concentration (IC50) is 150 nM against DGKα and 7.9 µM against DGKζ.

As to `Cn1c(=O)c([N+](=O)[O-])c(N2CCN(Cc3ccccc3)C(=O)C2)c2cc(F)ccc21` [Example 5, 4-(4-benzyl-3-oxopiperazin-1-yl)-6-fluoro-1-methyl-3-nitro-1,2-dihydroquinolin-2-one], the IC50 was 500 nM at DGKα and over 240 µM at DGKζ.

As to `COc1ccc2c(c1)c(N1CCN(Cc3cccc4ccccc34)CC1)c([N+](=O)[O-])c(=O)n2C` [Example 8, 6-methoxy-1-methyl-4-{4-[(naphthalen-1-yl)methyl]piperazin-1-yl}-3-nitro-1,2-dihydroquinolin-2-one], the half-inhibitory concentration (IC50) against DGKα was determined as 39000 nM; on DGKζ, 82 µM.

Turning to `Cn1c(=O)c(CO)c(N2CCN(C(c3ccccc3)c3ccccc3)CC2)c2ccccc21` [Example 11, 4-[4-(diphenylmethyl)piperazin-1-yl]-3-(hydroxymethyl)-1-methyl-1,2-dihydroquinolin-2-one], the concentration for half-maximal inhibition (IC50) at DGKα was 90000 nM; at DGKζ it was over 240 µM.
